According to US12697313B2, “Methods of treating anemia using formoterol or a pharmaceutically acceptable salt thereof” (Dana-Farber Cancer Institute, Inc., priority 2022, dated 2026):
Structures can show the parent of a compound that is named as a salt.

Test system: phenylhydrazine (PHZ)-treated mice
Assay: FF/Arf i.p. in PHZ-treated mice at sub-lethal dose of 60 mg/kg
Format: in vivo

SMILES: COc1ccc(C[C@@H](C)NC[C@H](O)c2ccc(O)c(NC=O)c2)cc1 [Arf, N-[2-hydroxy-5-[(1R)-1-hydroxy-2-[[(1R)-2-(4-methoxyphenyl)-1-methylethyl]amino]ethyl]phenyl]-formamide, (2R,3R)-2,3-dihydroxybutanedioate (1:1 salt)]
- transferrin receptor expression in CFU-e derived from BMPs (FIG. 39B): transferrin receptor expression is enhanced
- Hemoglobin (Hb) in peripheral blood (after 7 and 14 days of i.p., FIG. 35): increase Hemoglobin (Hb)
- RBC parameters (HCT % and RBCs) in peripheral blood (after 7 days of i.p., FIG. 34): increases RBC parameters
- LS-K and LSK cells in bone marrow progenitors (after 14 days of i.p., FIG. 36A-36B): increase LSK, LS-K, and mitochondrial activity
- mitochondrial membrane potential (TMRE staining) in bone marrow progenitors (after 14 days of i.p., FIG. 36C): increase LSK, LS-K, and mitochondrial activity
- megakaryocyte erythrocyte progenitors (MEP) in BM (after 14 days of i.p., FIG. 37A): increase megakaryocyte erythrocyte progenitors (MEP)
- body weights (i.p., PHZ 60 mg/kg, FIG. 32): enhances body weights
- platelets and WBCs in peripheral blood (i.p., PHZ 60 mg/kg, FIG. 33): do not affect platelets and WBCs
